“Also recorded” adds a separate entry of the source.
Assays:
[1] = test system: Panc-1 cells; experiment: Viability of Panc-1 cells under HDL receptor blockade; assay type: cell-based, human; conditions: HDL receptor inhibitor, LDS
Procedure: For direct enumeration of viable cells in co-cultures with CAFs, we seeded CAFs at 12,000 cells per well in 96-well plate (#3603, Corning) in DMEM/10% FBS. The next day, the media was replaced with 10%/LDS/DMEM and 4,000 DsRed-tagged Panc-1 cells were plated on the top of CAFs at 3:1 ratio. After 96 hours, fluorescence of viable DsRed-positive Panc-1 cells was measured using Spark Multimode Microplate Reader (Tecan) with parameters set at 540 nm for excitation and 590 nm for detection. To measure the dynamics of cell proliferation in vitro, we used xCELLigence E-Plate (ACEA BioSciences,) as per the manufacturer's recommended protocol. Impedance values were recorded every hour. Data was graphed using GraphPad Prism software.

[2] = test system: KPC3 pancreatic tumors; experiment: Orthotopic syngeneic KPC3 pancreatic tumor growth; assay type: in vivo, mouse; conditions: oral gavage 5 days/week for 3 weeks; niclosamide 150 mg/kg, clofazimine 50 mg/kg
Procedure: Syngeneic 5×10^5 KPC3 cells were injected into the tail of pancreas of anesthetized C57B1/6J mice. […] Mice were kept under defined-flora pathogen-free conditions at the AAALAC-approved Animal Facility of the Fox Chase Cancer Center, Philadelphia, PA. Mice of both genders, equally distributed, were used for the experiments.

[3] = test system: TMEM16F-dependent syncytia induced by SARS-COV-2; conditions: previous studies; cited from earlier work
[4] = biological target: T1, ANO6 (Homo sapiens, UniProt Q4KMQ2); experiment: PtdSer externalization (annexin XII) in CAFs co-cultured with DsRed-tagged Panc-1 cells; assay type: cell-based; design: this increase was observed only in control CAFs (ANO6-proficient) engaged in physical contacts with DsRed-tagged Panc-1 cells; endogenous in cells; host or cells: human CAFs in co-culture with DsRed-tagged Panc-1 cells; conditions: BTP2 10 μM; clofazimine 1 μM; niclosamide
T1 sequence (Q4KMQ2 1-910): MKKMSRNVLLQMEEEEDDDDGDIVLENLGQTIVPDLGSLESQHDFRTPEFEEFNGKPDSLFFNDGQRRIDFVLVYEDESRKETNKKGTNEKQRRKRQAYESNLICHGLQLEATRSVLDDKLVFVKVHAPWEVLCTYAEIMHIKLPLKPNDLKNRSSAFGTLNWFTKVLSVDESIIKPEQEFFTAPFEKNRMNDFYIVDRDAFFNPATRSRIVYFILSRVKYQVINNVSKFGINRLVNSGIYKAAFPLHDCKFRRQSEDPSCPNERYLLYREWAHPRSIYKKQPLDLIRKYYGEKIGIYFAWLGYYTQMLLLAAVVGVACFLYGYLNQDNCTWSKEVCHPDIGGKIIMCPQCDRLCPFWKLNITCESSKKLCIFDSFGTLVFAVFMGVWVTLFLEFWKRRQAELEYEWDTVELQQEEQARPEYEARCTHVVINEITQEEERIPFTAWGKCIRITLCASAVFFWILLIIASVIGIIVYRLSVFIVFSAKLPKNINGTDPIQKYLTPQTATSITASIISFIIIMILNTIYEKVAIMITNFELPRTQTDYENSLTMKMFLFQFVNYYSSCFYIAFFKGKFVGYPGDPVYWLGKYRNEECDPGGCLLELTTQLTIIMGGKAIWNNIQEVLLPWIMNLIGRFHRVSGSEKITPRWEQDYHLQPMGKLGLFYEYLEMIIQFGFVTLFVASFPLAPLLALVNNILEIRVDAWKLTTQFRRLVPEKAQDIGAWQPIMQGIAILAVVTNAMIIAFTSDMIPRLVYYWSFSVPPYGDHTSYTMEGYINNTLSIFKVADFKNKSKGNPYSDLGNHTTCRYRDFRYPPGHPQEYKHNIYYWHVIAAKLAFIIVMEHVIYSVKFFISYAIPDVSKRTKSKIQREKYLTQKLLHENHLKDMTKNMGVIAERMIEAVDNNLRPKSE
Procedure: (§1) CAFs were seeded in 24-well glass bottom plates (cat. #81156, Ibidi, Fitchburg, WI) at a density of 20,000 cells per well. Cells were then treated with niclosamide (1 μM) for 2 h. After one wash with FBS-free media at RT, cells were incubated with 250 μl of 1:100 annexin XII and 1:200 propidium iodide (pSIVA Abcam #ab129817), with or without 10 μM ionomycin. Cells were then incubated (5 min 37C) and imaged by fluorescence microscopy using a Nikon A1 camera (Nikon) linked to a Nikon Eclipse Ti2-E Inverted Microscope Imaging System (Nikon) for each channel. Fifteen images per well were acquired.

[5] = test system: PtdSer externalization in KPC tumors; experiment: Phosphatidylserine imaging in autochthonous KPC pancreatic tumors; assay type: in vivo, mouse; conditions: KPC mice
[6] = test system: OT-1 CTLs; experiment: Trogocytosis assay of DiD-labeled CAFs co-cultured with OT-1 CTLs; assay type: cell-based, mouse; conditions: 12 h co-culture; niclosamide 1 μM, clofazimine 1 μM, anti-TIM3 Ab 4 μg/ml, 25-hydroxycholesterol 4 μM
Procedure: For trogocytosis between OT-1 and CAF cells, T cells were isolated from splenocytes of OTI mice (strain 021880, The Jackson Laboratory) and stimulated with OVA257-264 (1 μg/ml) for 24 hours as described.
Cholesterol abundance in cell membranes was determined with Cholesterol Detection Assay Kit (Cayman, cat #10009779). Dissociated cells were fixed with fixative solution for 10 minutes, washed and labeled with Filipin III as per the manufacturer's instructions. Labeling with Filipin III was done by incubating in the dark for 30 minutes. After two washes for 5 minutes each, labeling was analyzed by flow cytometry (excitation: 340-380, emission: 385-470). The IFN-γ, Granzyme B and Foxp3 were detected using Foxp3/Transcription Factor Staining Buffer (00-5523-00, Thermo Fisher Scientific). Cells were stained for cell surface markers at 4° C. for 30 min followed by fixation and permeabilization buffer for 30 mins and two washes with permeabilization buffer and incubation with the indicated antibodies for 30 mins, washed with PBS twice followed by flow cytometry analysis.

[7] = test system: DsRed-tagged PDAC KPC3 tumors; experiment: Intravital multiphoton imaging of BODIPY-cholesterol LDL uptake in DsRed-tagged KPC3 tumors; assay type: in vivo, mouse
Procedure: Mice with established orthotopic tumors roughly 21 days post implantation were anesthetized with 1.5-2% isoflurane/oxygen mixture maintained for the duration of imaging. Pancreatic tumors were exposed through a 1 cm incision on the left flank of the mouse placed on a 35° C. heating pad (Kent Scientific). Intensity thresholds were set up to distinguish signal from background fluorescence, and areas positive for DsRed, indicative of tumor cells, were selected for 3D confocal imaging using a 25× objective in the Leica SP8 Dive multiphoton imaging system (Leica Microsystems), prior to the intravenous administration of 150 μL of LDL carrying BODIPY-cholesterol and at 0.5, 1, 5, 16, and 19-hour interval post injection with XY resolution 0.867 um/px and Z distance 2 μm. For each time interval, 2-3 mice were imaged for 0.5-2 hours under continuous anesthesia. At the end of each imaging session, the animals were euthanized, and tissues were collected. The acquired 3D stacks were analyzed using Imaris 10.0.0 software (Oxford Instruments, UK). […] Mean intensity of cholesterol volume co-localized with tumor volume or volume outside of tumor was measured and ratio inside intensity/outside intensity was calculated. […] The volume of vesicles inside the tumor were expressed as a percentage relative to tumor volume.

[8] = biological target: T1, ANO6; experiment: Phosphatidylserine externalization assay in CAFs pulsed with ionomycin (annexin XII); assay type: cell-based; design: endogenous in cells; host or cells: human patient-derived, hTERT-immortalized pancreatic cancer-associated fibroblasts (CAFs); conditions: niclosamide 1 μM 2 h; ionomycin 5 minutes at 10 μM; annexin XII staining
Procedure: as §1

[9] = test system: CAF1 fibroblasts; experiment: Western blot of signaling epitopes in CAF1 fibroblast lysates; assay type: cell-based, human; conditions: band densities relative to vehicle control
Procedure: Functional fibroblastic cell 3D culture units are needed to ensure the pathophysiological signal reciprocity between fibroblastic cells and self-generated ECM is sustained ex vivo. These units were generated using known methods. Briefly, confluent cultures of human pancreatic fibroblastic cells, harvested from surgical samples and immortalized via hTERT overexpression, were supplemented daily with freshly-prepared ascorbic acid (50 ug/mL) for a period lasting 5 days. The resulting fibroblastic/ECM 3D functional units were used for the phenotypic characterization of the units and to report on the pro-tumor vs. tumor-suppressive (normalized) statuses of the experimental fibroblastic/ECM units. For this, lysates obtained from the assorted units were resolved using SDS-PAGE and traits were gauged via western blot; testing for constitutive integrin and PI3K activities depicted by phosphorylated FAK and AKT respectively. Cultured cells were lysed in RIPA buffer (#24928, Santa Cruz) with phosphatase inhibitor (#1862495, Thermo Fisher Scientific) and protease inhibitors (#1861278, Thermo Fisher Scientific) on ice and cleared by centrifugation (15 min at 17,000 g). The protein concentration was measured with a Pierce BCA Protein Assay Kit (#23225, Thermo Fisher Scientific). […] The density of obtained bands was quantified with Image J software (FIJI).

[10] = test system: KPCN349 cells; experiment: Trogocytosis of BODIPY-cholesterol labeled CAF membranes by KPCN349 cells with PtdSer masking; assay type: cell-based, murine; conditions: 100 nM Annexin-V or 100 nM Zn-DPA; CAFs pre-treated 2 h, maintained in co-culture
Procedure: To label cellular membranes, pairs of lipophilic fluorescent dyes were used according to the manufacturer's instructions in the following combinations: 1) adherent CAFs were stained with 1 μM PKH67 (Sigma-Aldrich), Panc-1 were stained in suspension with 10 μM CellTracker™ orange CMCMR (Thermo Fisher Scientific); 2) CAFs labeled with 0.5 μM BODIPY-cholesterol (Topfluor Cholesterol, #DO-016545, Avanti Polar Lipids) dissolved in 0.1 mM methyl-beta-cyclodextrin (#C4555, Sigma) with 2 μM cholesterol (#C8667, Sigma-Aldrich) in MEM media at 37° C. for 30 min in suspension; murine or human (Panc-1) PDAC cells were stained in suspension with CPD670 (#65-0840-85, Thermo Fisher Scientific). After labeling, CAFs were co-incubated for the indicated time intervals with PDAC cells in 12-well culture plates at ratio of 2:1 in 0.5% DMEM media. Co-cultures of CAFs and PDAC cells for 3 minutes on ice minutes were used as negative controls. In experiments assessing the effect of extracellular calcium on trogocytosis, cells were co-cultured in Phosphate Buffered Saline (PBS) containing calcium and magnesium (D8662, Sigma-Aldrich) or in PBS without calcium and magnesium (D8537, Sigma-Aldrich). […] Trogocytosis was measured as the acquisition of CAF-specific fluorescence in PDAC cells by flow cytometry on MACSQuant® VYB Flow Cytometer (Miltenyi Biotec) or FACScan analyzer (BD Biosciences). […]

**Q.** For `CCCCCCC1CCCC1=NNC(N)=S` (stereo not drawn) [BTL1], which Panc-1 viability [1] is on record?
**A.** loss of Panc-1 viability

**Q.** Which “Tumor weights of orthotopic syngeneic KPC3 pancreatic tumors” value [2] does the source give for `CC(C)/N=c1\cc2n(-c3ccc(Cl)cc3)c3ccccc3nc-2cc1Nc1ccc(Cl)cc1` [clofazimine] here?
**A.** significantly reduced tumor weights

**Q.** What about the “Formation of TMEM16F-dependent syncytia induced by SARS-COV-2” value [3] of the same molecule?
**A.** block formation

**Q.** And the “PtdSer externalization (annexin XII) in CAFs co-cultured with Panc-1 cells” value [4]?
**A.** suppressed PtdSer externalization; also recorded: blocked

**Q.** What about the “PtdSer externalization in cytokeratin-positive cancer cells and podoplanin-positive CAFs (KL5c betabody)” value ([5]; two daily doses 50 mg/kg, 50 μg KL5c IV 5 hours prior to sacrifice) of the same molecule?
**A.** blocks PtdSer externalization

**Q.** What about the “PtdSer externalization in KPC tumors (PSVue-794 infrared probe)” value ([5]; two daily doses 50 mg/kg, probe IV 24 hours prior to sacrifice) of the same molecule?
**A.** blocks PtdSer externalization

**Q.** And the “Detection of externalized PtdSer in PDAC using two chemically unrelated probes” value ([5]; two daily doses of clofazimine 50 mg/kg, KL5c betabody and PSVue-794)?
**A.** completely suppressed detection of externalized PtdSer

**Q.** And the “Transfer of DiD (CAF PM uptake) from CAFs to OT-1 CTLs” value [6]?
**A.** notably suppressed the measured transfer

**Q.** What does the source list for `O=C(Nc1ccc([N+](=O)[O-])cc1Cl)c1cc(Cl)ccc1O` [niclosamide]?
**A.** Tumor weights of orthotopic syngeneic KPC3 pancreatic tumors [2]: significantly reduced tumor weights; Formation of TMEM16F-dependent syncytia induced by SARS-COV-2 [3]: block formation; Cholesterol accumulation in intratumoral vesicles containing BODIPY-cholesterol ([7]; 19 hours post injection): significantly lower accumulation; BODIPY-cholesterol accumulation in DsRed-tagged PDAC KPC3 cells ([7]; niclosamide-treated mice, after intravenous labeled LDL, 10, 16 and 19 hours): suppressed BODIPY-cholesterol accumulation; PtdSer externalization (annexin XII) in CAFs co-cultured with Panc-1 cells [4]: absence of annexin XII labeling; PtdSer externalization induced by ionomycin in CAFs pre-treated with inhibitor [8]: did not cause externalized PtdSer; also recorded: prevents PtdSer externalization; Signaling: expression of indicated protein epitopes in total cellular lysates of unmodified CAF1 fibroblasts [9]: suppresses signaling; Transfer of DiD (CAF PM uptake) from CAFs to OT-1 CTLs [6]: notably suppressed the measured transfer

B1: annexin V: PtdSer binding recombinant annexin V, label-free (protein, UniProt P08758 2-320, looked up)
Annexin A5: AQVLRGTVTDFPGFDERADAETLRKAMKGLGTDEESILTLLTSRSNAQRQEISAAFKTLFGRDLLDDLKSELTGKFEKLIVALMKPSRLYDAYELKHALKGAGTNEKVLTEIIASRTPEELRAIKQVYEEEYGSSLEDDVVGDTSGYYQRMLVVLLQANRDPDAGIDEAQVEQDAQALFQAGELKWGTDEEKFITIFGTRSVSHLRKVFDKYMTISGFQIEETIDRETSGNLEQLLLAVVKSIRSIPAYLAETLYYAMKGAGTDDHTLIRVMVSRSEIDLFNIRKEFRKNFATSLYSMIKGDTSGDYKKALLLLCGEDD
**Q.** Which “Uptake of BODIPY-labeled CAF membranes by KPCN349 cells” value [10] does the source give for B1 here?
**A.** significantly reduced uptake; also recorded: antagonizes trogocytosis

**Q.** What about the “Transfer of DiD (CAF PM uptake) from CAFs to OT-1 CTLs” value [6] of the same molecule?
**A.** significantly reduced CAF PM uptake

From US20250312336A1, “Compositions And Methods For Treating Cancer With Calcium Channel Inhibitors” (Institute for Cancer Research d/b/a The Research Institute …, priority 2024, published 2025)
